Our source for the IC50 and viability, T/C values is PubChem BioAssay AID2060496 (Molecular Pharmacology Branch, DTP, NCI, 2025).

Several values for one entry are separate records, joined by “and”; a condition that tells them apart may be missing. Equal values may be shown once.

In this assay the test system is 276233-004-R-J1-PDC complex spheroid viability. Put plainly: Anticancer human tumor 276233-004-R-J1-PDC patient-derived colon adenocarcinoma cell line growth inhibition [GQUAD]. As to conditions: for viability, T/C: stronger effect = lower value. The gist of the method: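 Viability of tumor cells grown as complex spheroids with endothelial and stromal cells, exposed to drug combinations. Top concentration at or near clinical Cmax (else 10 microM), diluted in half-log increments.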

Setting [1] is: curve of first compound, second compound 0.0316 µM.
[2] abbreviates: curve of first compound, second compound 0.1 µM.
The mark [3] stands for this setting: curve of first compound, second compound 0.316 µM.
Where [4] appears, read: curve of first compound, second compound 1 µM.
Setting [5] is: curve of first compound, second compound 3.16 µM.
Setting [6] is: curve of first compound, second compound 10 µM.
Where [7] appears, read: second compound 0.0316 µM, first compound 0.0316 µM.
Setting [8] is: second compound 0.0316 µM, first compound 0.1 µM.
The mark [9] stands for this setting: second compound 0.0316 µM, first compound 0.316 µM.
The mark [10] stands for this setting: second compound 0.0316 µM, first compound 1 µM.
Where [11] appears, read: second compound 0.0316 µM, first compound 3.16 µM.
[12] abbreviates: second compound 0.0316 µM, first compound 10 µM.
Setting [13] is: second compound 0.1 µM, first compound 0.0316 µM.
Setting [14] is: second compound 0.1 µM, first compound 0.1 µM.
Where [15] appears, read: second compound 0.1 µM, first compound 0.316 µM.
The mark [16] stands for this setting: second compound 0.1 µM, first compound 1 µM.
Setting [17] is: second compound 0.1 µM, first compound 3.16 µM.
Where [18] appears, read: second compound 0.1 µM, first compound 10 µM.
[19] abbreviates: second compound 0.316 µM, first compound 0.0316 µM.
Where [20] appears, read: second compound 0.316 µM, first compound 0.1 µM.
Where [21] appears, read: second compound 0.316 µM, first compound 0.316 µM.
[22] abbreviates: second compound 0.316 µM, first compound 1 µM.
Setting [23] is: second compound 0.316 µM, first compound 3.16 µM.
The mark [24] stands for this setting: second compound 0.316 µM, first compound 10 µM.
[25] abbreviates: second compound 1 µM, first compound 0.0316 µM.
Where [26] appears, read: second compound 1 µM, first compound 0.1 µM.
Setting [27] is: second compound 1 µM, first compound 0.316 µM.
Setting [28] is: second compound 1 µM, first compound 1 µM.
The mark [29] stands for this setting: second compound 1 µM, first compound 3.16 µM.
The mark [30] stands for this setting: second compound 1 µM, first compound 10 µM.
Where [31] appears, read: second compound 3.16 µM, first compound 0.0316 µM.
The mark [32] stands for this setting: second compound 3.16 µM, first compound 0.1 µM.
Where [33] appears, read: second compound 3.16 µM, first compound 0.316 µM.
The mark [34] stands for this setting: second compound 3.16 µM, first compound 1 µM.
Where [35] appears, read: second compound 3.16 µM, first compound 3.16 µM.
Where [36] appears, read: second compound 3.16 µM, first compound 10 µM.
The mark [37] stands for this setting: second compound 10 µM, first compound 0.0316 µM.
Where [38] appears, read: second compound 10 µM, first compound 0.1 µM.
The mark [39] stands for this setting: second compound 10 µM, first compound 0.316 µM.
Where [40] appears, read: second compound 10 µM, first compound 1 µM.
[41] abbreviates: second compound 10 µM, first compound 3.16 µM.
The mark [42] stands for this setting: second compound 10 µM, first compound 10 µM.
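Further: spheroids exposed to drugs for seven days.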
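Wherever viability, T/C is given: 100% = DMSO vehicle control viability.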

For the compound `O=C(NO)c1cnc(N2CCN(S(=O)(=O)c3ccc4ccccc4c3)CC2)nc1` + Cc1[nH]c2ccc(F)cc2c1-c1nc2c3cccnc3c3ncccc3c2[nH]1, the IC50 (in general, the midpoint of a concentration-inhibition curve) reads like this: under setting [1], 427 nM; under setting [2], 372 nM; under setting [3], 360 nM; under setting [4], 102 nM; under setting [5], less than 31.6 nM; under setting [6], less than 31.6 nM. The viability, T/C (usually the result in the treated group divided by that in the control group, in per cent) reads like this: under setting [7], 87.1%; under setting [8], 86%; under setting [9], 66.7%; under setting [10], 2.71%; under setting [11], 0.44%; under setting [12], 0.48%. Besides, the viability, T/C is, setting by setting: under setting [13], 83.2%; under setting [14], 108%; under setting [15], 57.9%; under setting [16], 5.03%; under setting [17], 0.38%; under setting [18], 0.83%. Also, the viability, T/C runs as follows: under setting [19], 50.4%; under setting [20], 71.8%; under setting [21], 56.1%; under setting [22], 2.35%; under setting [23], 2.07%; under setting [24], 0.4%. For the same compound, the viability, T/C by setting is: under setting [25], 58.8%; under setting [26], 41.5%; under setting [27], 42.8%; under setting [28], 3.96%; under setting [29], 1.07%; under setting [30], 0.62%. For the same compound, the viability, T/C is 17.4% under setting [31]; 17% under setting [32]; 14.8% under setting [33]; 1.23% under setting [34]; 1.33% under setting [35]; 0.42% under setting [36]. For the same compound, the viability, T/C under setting [37] is 26.4%; the viability, T/C under setting [38] is 26.6%; the viability, T/C under setting [39] is 22.1%; the viability, T/C under setting [40] was 3.12%; the viability, T/C under setting [41] was 1.25%; the viability, T/C under setting [42] was 0.61%.

Regarding `Cc1[nH]c2ccc(F)cc2c1-c1nc2c3cccnc3c3ncccc3c2[nH]1`, the viability, T/C is 80.8% [middle of 12 runs] (compound 0.316 µM), 73.4% [middle of 12 runs] (compound 1 µM) and 44.4% [middle of 12 runs] (compound 10 µM). Also, the 50% inhibitory concentration (IC50) (compound alone, run of 02/20/2024) is 2.51 µM [middle of 8 runs] and the IC50 (compound alone, run of 02/26/2024) is 1.35 µM [middle of 4 runs].

For `CCCS(=O)(=O)Nc1ccc(F)c(C(=O)c2c[nH]c3ncc(-c4ccc(Cl)cc4)cc23)c1F` + CN(C)c1ccc(Nc2c3ccc(NC(=O)CCN4CCCC4)cc3nc3cc(NC(=O)CCN4CCCC4)ccc23)cc1, the concentration for half-maximal inhibition (IC50) is, setting by setting: under setting [1], more than 10000 nM; under setting [2], more than 10000 nM; under setting [3], more than 10000 nM; under setting [4], more than 10000 nM; under setting [5], more than 10000 nM; under setting [6], less than 31.6 nM. Moreover, the viability, T/C reads like this: under setting [7], 81.6%; under setting [8], 83.2%; under setting [9], 78%; under setting [10], 102%; under setting [11], 91%; under setting [12], 65.2%. The viability, T/C is 76.4% under setting [13]; 80% under setting [14]; 78.2% under setting [15]; 77.1% under setting [16]; 71% under setting [17]; 70.8% under setting [18]. Also, the viability, T/C by setting is: under setting [19], 72.9%; under setting [20], 64.3%; under setting [21], 68.8%; under setting [22], 63%; under setting [23], 65.3%; under setting [24], 55.1%. In addition, the viability, T/C was 60.2% under setting [25]; 58.2% under setting [26]; 56.8% under setting [27]; 65.2% under setting [28]; 53.3% under setting [29]; 63.4% under setting [30]. The viability, T/C is 62.1% under setting [31]; 56.6% under setting [32]; 50.8% under setting [33]; 46.1% under setting [34]; 59.1% under setting [35]; 55.6% under setting [36]. In addition, the viability, T/C by setting is: under setting [37], 33.9%; under setting [38], 45.9%; under setting [39], 40.4%; under setting [40], 38.2%; under setting [41], 39.3%; under setting [42], 56.6%.

Turning to `CC(C)n1c(=O)n(C)c2cnc3cc(F)c(-c4ccc(OCCCN5CCCCC5)nc4)cc3c21`, the viability, T/C was 91.9% and 80.4% and 93.2% (compound 0.0316 µM); 86.8% and 101% and 78.8% (compound 0.1 µM); 107% and 86.6% and 73.3% (compound 0.316 µM); 99.4% and 85.9% and 73.2% (compound 1 µM); 108% and 84.9% and 95.3% (compound 3.16 µM); 86.9% and 68.8% and 77% (compound 10 µM). The IC50 (curve of compound) is more than 10000 nM.

Turning to `O=C(NO)c1cnc(N2CCN(S(=O)(=O)c3ccc4ccccc4c3)CC2)nc1`, the viability, T/C (compound 0.0316 µM) was 87% and 88.3% and 112%; the viability, T/C (compound 0.1 µM) was 108% and 125% and 89%; the viability, T/C (compound 0.316 µM) is 68.1% and 77.6% and 63.9%; the viability, T/C (compound 1 µM) is 1.97% and 0.86% and 8.3%; the viability, T/C (compound 3.16 µM) was 0.67% and 0.79% and 4.97%; the viability, T/C (compound 10 µM) is 1.35% and 1.12% and 3.62%. Where the note is “curve of compound”, the IC50 is 432 nM and 479 nM and 397 nM.

With `O=c1[nH]cc(F)c(=O)[nH]1`, the viability, T/C is, setting by setting: (compound 0.0316 µM) 98.2% and 108% and 102%; (compound 0.1 µM) 71.6% and 81.3% and 94.7%; (compound 0.316 µM) 89.2% and 90.9% and 103%; (compound 1 µM) 88.4% and 88.3% and 106%; (compound 3.16 µM) 84.1% and 90.3% and 83.7%; (compound 10 µM) 101% and 97.9% and 113%. In addition, the concentration for half-maximal inhibition (IC50) (curve of compound) was more than 10000 nM.

As for `CC(C)(O)C1CCC(Nc2ccc3ncc(-c4cccc(C(F)(F)F)c4)n3n2)CC1` (configuration not stated), the viability, T/C was 82.3% and 80.4% and 95.8% (compound 0.0316 µM); 73.1% and 79.5% and 84.1% (compound 0.1 µM); 72.7% and 86.8% and 87.8% (compound 0.316 µM); 62.9% and 60.6% and 73.3% (compound 1 µM); 43.8% and 49.5% and 61% (compound 3.16 µM); 45.6% and 63.7% and 54.7% (compound 10 µM). Where the note is “curve of compound”, the IC50 is 2380 nM and > 10000 nM.
